How the values were obtained:
Cyclin T = Cyclin T protein levels, Western blot, MOLT-4 cells; type: cell-based, human; details: MOLT-4 leukemia cells, 10 μM, 8 h treatment time
Protocol: Compounds 4 and 5 (KI-ARv-03-D09 and -D10) incorporate such bi-aryl extensions and were therefore tested for their ability to degrade CDK9 and/or its associated cyclin T. In addition, the corresponding molecules KB-0742-D01 and -D02 which comprise the […] warhead and bi-aryl extensions were evaluated.

CDK9 [1] = molecular target: T1, CDK9 (Homo sapiens, UniProt P50750); test: CDK9 degradation assay, Western blot, MOLT4 cells; type: cell-based; parameters: endogenous in cells; host or cells: MOLT4 (MOLT-4); details: for CDK9 protein levels: MOLT-4 leukemia cells, 8 h treatment time; for reduction of CDK9 protein levels: 1 μM, compared to DMSO and parent compound KI-ARv3; for concentration at which the concentration dependent decrease of CDK9 levels starts: dose range 10 nM-10 μM
Protocol: Efficiencies were measured by monitoring their impact on CDK9 itself as well as downstream targets of CDK9 phosphorylation such as AR and Pol II.

AR = AR and AR splice variant protein levels, Western blot, 22Rv1 cells; type: cell-based; details: FIG. 7 (24 hours, 10 nM-10 μM)
Protocol: (§1) Compounds were evaluated in ARv7 positive 22Rv1 cells in order to assess their potential to degrade CDK9 and its associated downstream phosphorylation targets Pol II as well as AR and related splice variants (FIGS. 6 and 7).

Pol II = Pol II protein levels, Western blot, 22Rv1 cells; type: cell-based; details: FIG. 7 (24 hours, 10 nM-10 μM)
Protocol: as §1

CDK9 [2] = molecular target: T1, CDK9; test: CDK9 degradation assay, Western blot, MV-4-11 cells; type: cell-based; parameters: endogenous in cells
Protocol: (§2) FIGS. 8A-C show evaluation of KI-ARv3-D07 and -08 in MV-4-11 (FIG. 8A) and Rh-30 (FIG. 8C) cells as well as side by side comparison of both cell lines (FIG. 8B). […] FIG. 8B treatment time is 8 hr.
(§3) The effect of KI-ARv3-D07 and -08 on impacting CDK9 levels in the additional cell lineages MV-4-11 (leukemia cell line) and the Rh-30 (rhabdomyosarcoma cell line) at 6 h and 8 h treatment times (FIG. 8) was also evaluated. […] In Rh-30 no changes in CDK9 levels were detected at any compound concentration (10 nM, 100 nM, 500 nM, 1 μM, 10 μM) at either 6 h or 8 h treatment time (FIGS. 8B and 8C).

CDK9 [3] = molecular target: T1, CDK9; test: CDK9 degradation assay, Western blot, 22Rv1 cells; type: cell-based; parameters: endogenous in cells; host or cells: 22Rv1; details: for reduction of CDK9 levels / degradation of CDK9: 10 nM-10 μM
Protocol: as §1

CDK9 [4] = molecular target: T1, CDK9; test: CDK9 degradation assay, Western blot, Rh-30 cells; type: cell-based; parameters: endogenous in cells; host or cells: 22Rv1; details: for changes in CDK9 levels: Rh-30 cells, 10 nM, 100 nM, 500 nM, 1 μM, 10 μM, 6 h or 8 h
Protocol: as §2
FIGS. 9A-D show evaluation of KI-ARv3-D11 and -D18 in 22Rv1 (FIG. 9A, 16 h treatment time), MOLT-4 (FIG. 9B, 7 h treatment time), and Rh-30 (FIGS. 9C and 9D, 16 h treatment time) cell lines.
as §3

[5] = MOLT4 cells, 1 μM and 5 μM, 6 hours, compared to DMSO
[6] = MOLT4 cells, low dose 1 μM, 24 hours

T1 sequence (P50750 whole entry): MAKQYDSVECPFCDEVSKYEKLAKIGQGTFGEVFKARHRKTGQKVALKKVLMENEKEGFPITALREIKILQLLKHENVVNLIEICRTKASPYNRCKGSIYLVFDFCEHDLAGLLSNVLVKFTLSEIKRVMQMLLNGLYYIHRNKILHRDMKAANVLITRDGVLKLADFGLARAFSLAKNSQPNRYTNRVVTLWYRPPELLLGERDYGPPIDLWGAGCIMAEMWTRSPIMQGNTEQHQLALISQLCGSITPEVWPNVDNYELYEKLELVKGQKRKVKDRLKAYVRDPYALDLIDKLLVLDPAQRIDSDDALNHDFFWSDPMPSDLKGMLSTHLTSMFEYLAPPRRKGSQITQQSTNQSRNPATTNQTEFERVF
T1 sequence (O60563 whole entry partner): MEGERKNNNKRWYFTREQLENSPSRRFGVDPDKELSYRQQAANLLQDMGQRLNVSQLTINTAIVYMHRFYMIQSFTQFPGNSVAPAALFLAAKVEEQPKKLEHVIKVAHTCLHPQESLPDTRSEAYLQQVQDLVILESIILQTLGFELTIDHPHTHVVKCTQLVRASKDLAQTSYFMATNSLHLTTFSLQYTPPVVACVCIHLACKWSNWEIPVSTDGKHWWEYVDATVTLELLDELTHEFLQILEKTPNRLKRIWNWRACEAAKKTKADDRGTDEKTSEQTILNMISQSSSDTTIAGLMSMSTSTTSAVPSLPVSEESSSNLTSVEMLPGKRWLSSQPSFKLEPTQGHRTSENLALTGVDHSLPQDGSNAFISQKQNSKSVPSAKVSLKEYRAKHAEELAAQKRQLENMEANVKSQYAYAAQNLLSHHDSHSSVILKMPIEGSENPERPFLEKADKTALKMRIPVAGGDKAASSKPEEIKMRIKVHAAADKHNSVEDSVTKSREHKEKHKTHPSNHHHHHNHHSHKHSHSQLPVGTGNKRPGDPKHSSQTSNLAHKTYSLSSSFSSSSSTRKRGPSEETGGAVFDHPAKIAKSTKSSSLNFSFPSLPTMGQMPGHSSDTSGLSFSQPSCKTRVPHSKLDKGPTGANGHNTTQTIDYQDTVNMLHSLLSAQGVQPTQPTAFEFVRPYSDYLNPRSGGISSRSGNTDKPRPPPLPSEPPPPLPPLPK

| CDK9 protein levels (CDK9 [1]; 10 μM) | SMILES | Cyclin T protein levels (Cyclin T) | reduction of CDK9 levels (CDK9 [3]; 6 hours) | degradation of CDK9 (CDK9 [3]; 24 hours) | changes in CDK9 levels (CDK9 [4]) | CDK9 degradation (CDK9 [1]; [5]) | reduction of CDK9 protein levels (CDK9 [1]; MOLT4 cells, 6 hours) | concentration at which the concentration dependent decrease of CDK9 levels starts (CDK9 [1]; MOLT4 cells, 6 hours) [nM] | CDK9 degradation (CDK9 [1]; [6]) | further results |
| --- | --- | --- | --- | --- | --- | --- | --- | --- | --- | --- |
| reduction in protein levels | CCC(CC)c1cc(N[C@H]2CC[C@H](NC(=O)c3ccc(-c4ccc(CN)cc4)cc3)C2)n2nccc2n1 [KB-0742-D02, 4′-(aminomethyl)-N-((1S,3S)-3-((5-(pentan-3-yl)pyrazolo[1,5-a]pyrimidin-7-yl)amino)cyclopentyl)-[1,1′-biphenyl]-4-carboxamide] | reduction in protein levels |  |  |  |  |  |  |  |  |
|  | CCCc1cc(N[C@@H]2CC[C@@H](NC(=O)c3ccc(-c4ccc(CNc5cccc6c5C(=O)N(C5CCC(=O)NC5=O)C6=O)cc4)cc3)C2)n2nccc2n1 (stereo partly drawn) [KI-ARv3-D08, 4′-(((2-(2,6-dioxopiperidin-3-yl)-1,3-dioxoisoindolin-4-yl)amino)methyl)-N-((1R,3R)-3-((5-propylpyrazolo[1,5-a]pyrimidin-7-yl)amino)cyclopentyl)-[1,1′-biphenyl]-4-carboxamide] |  | subtle reduction | significant CDK9 degradation | no changes | CDK9 degradation was observed | approximately 80% | 100 | reduced | global AR protein levels (AR): no observed effect; global Pol II protein levels (Pol II): no observed effect; concentration at which reduction of CDK9 levels starts (CDK9 [2]; 6 h and 8 h treatment time): 350 nM; reduction of CDK9 levels (CDK9 [2]; 6 h and 8 h treatment time): approximately 60%; rescue experiments using proteasome inhibitor MG132 (CDK9 [2]; FIG. 8A): reversible and proteasome dependent; concentration at which reduction in CDK9 protein levels starts (CDK9 [3]; 6 hours): 500 nM; concentration at which significant CDK9 degradation starts (CDK9 [3]; 24 hours): 100 nM; CDK9 degradation (CDK9 [1]; MOLT4 cells, 24 hours, across the whole range 10 nM-10 μM): approx. 80% |
|  | CCCc1cc(N[C@@H]2CC[C@@H](NC(=O)c3ccc(-c4ccc(CN[C@H](C(=O)N5C[C@H](O)C[C@H]5C(=O)NCc5ccc(-c6scnc6C)cc5)C(C)(C)C)cc4)cc3)C2)n2nccc2n1 [KI-ARv3-D18, (2S,4R)-1-((S)-3,3-dimethyl-2-(((4′-(((1R,3R)-3-((5-propylpyrazolo[1,5-a]pyrimidin-7-yl)amino)cyclopentyl)carbamoyl)-[1,1′-biphenyl]-4-yl)methyl)amino)butanoyl)-4-hydroxy-N-(4-(4-methylthiazol-5-yl)benzyl)pyrrolidine-2-carboxamide] |  |  |  |  |  |  |  |  | reduction of CDK9 levels (CDK9 [4]; 25 nM, FIG. 9D (Rh-30, 16 h treatment time)): approximately 80% |
|  | CCCc1cc(N[C@@H]2CC[C@@H](NC(=O)CCCCCCCCCNc3cccc4c3C(=O)N(C3CCC(=O)NC3=O)C4=O)C2)n2nccc2n1 (stereo partly drawn) [KI-ARv3-D07, 10-((2-(2,6-Dioxopiperidin-3-yl)-1,3-dioxoisoindolin-4-yl)amino)-N-((1R,3R)-3-((5-propylpyrazolo[1,5-a]pyrimidin-7-yl)amino)cyclopentyl)decanamide] |  | no significant reduction | not able to facilitate degradation of CDK9 | no changes | CDK9 degradation was observed | approximately 80% | 100 | reduced | changes in CDK9 levels (CDK9 [2]; 6 h and 8 h, FIGS. 8A and 8B): did not lead to significant changes; degradation of CDK9 (CDK9 [1]; MOLT4 cells, 24 hours, 10 μM): not demonstrated; hook effect on CDK9 degradation (CDK9 [1]; MOLT4 cells, high dose 5 μM, 24 hours): hook effect |
| reduction in protein levels | CCCc1cc(NC2CCC(NC(=O)c3ccc(-c4ccc(CN)cc4)cc3)C2)n2nccc2n1 (stereo not drawn) [KI-ARv3-D10, 4′-(aminomethyl)-N-(3-((5-propylpyrazolo[1,5-a]pyrimidin-7-yl)amino)cyclopentyl)-[1,1′-biphenyl]-4-carboxamide] | reduction in protein levels |  |  |  |  |  |  |  |  |
